Structures are written as SMILES.

The experiment concerns KB. The experiment is described as follows: Cytotoxicity against human KB cells by MTT assay. In kind it is functional, cell-based.

`C=C[C@](C)(CC/C=C(\C)C(=O)O[C@H]1[C@H](O)[C@@H](O)[C@H](O[C@](C)(C=C)CC/C=C(\C)C(=O)O[C@H]2C[C@]3(C(=O)O[C@@H]4O[C@H](CO)[C@@H](O)[C@H](O)[C@H]4O[C@@H]4O[C@@H](C)[C@H](O[C@@H]5O[C@@H](CO)[C@H](O)[C@H]5O)[C@@H](O[C@@H]5O[C@H](CO)[C@@H](O)[C@H](O)[C@H]5O)[C@H]4O)[C@H](O)C[C@]4(C)C(=CC[C@@H]5[C@@]6(C)CC[C@H](O[C@@H]7O[C@H](CO[C@@H]8O[C@H](C)[C@H](O)[C@H](O)[C@H]8O[C@@H]8OC[C@@H](O)[C@H](O)[C@H]8O)[C@@H](O)[C@H](O)[C@H]7NC(C)=O)C(C)(C)[C@@H]6CC[C@]54C)[C@@H]3CC2(C)C)O[C@@H]1C)O[C@@H]1O[C@H](C)[C@@H](O)[C@H](O)[C@H]1O` [JULIBROSIDE III] displayed an IC50 of 900 nM. In the case of `C=C[C@](C)(CC/C=C(\C)C(=O)O[C@H]1[C@H](O)[C@@H](O)[C@H](O[C@](C)(C=C)CC/C=C(\C)C(=O)O[C@H]2C[C@]3(C(=O)O[C@@H]4O[C@H](CO)[C@@H](O)[C@H](O)[C@H]4O[C@@H]4O[C@@H](C)[C@H](O[C@@H]5O[C@@H](CO)[C@H](O)[C@H]5O)[C@@H](O[C@@H]5O[C@H](CO)[C@@H](O)[C@H](O)[C@H]5O)[C@H]4O)[C@H](O)C[C@]4(C)C(=CC[C@@H]5[C@@]6(C)CC[C@H](O[C@@H]7O[C@H](CO[C@@H]8O[C@H](C)[C@H](O)[C@H](O)[C@H]8O[C@@H]8OC[C@@H](O)[C@H](O)[C@H]8O)[C@@H](O)[C@H](O)[C@H]7O)C(C)(C)[C@@H]6CC[C@]54C)[C@@H]3CC2(C)C)O[C@@H]1C)O[C@@H]1O[C@H](C)[C@@H](O)[C@H](O)[C@H]1O` [JULIBROSIDE II] it was greater than 10 µg/mL. `C=C[C@](C)(CC/C=C(\C)C(=O)O[C@H]1[C@H](O)[C@@H](O)[C@H](O[C@](C)(C=C)CC/C=C(\C)C(=O)O[C@H]2C[C@]3(C(=O)O[C@@H]4O[C@H](CO)[C@@H](O)[C@H](O)[C@H]4O[C@@H]4O[C@@H](C)[C@H](O[C@@H]5O[C@@H](CO)[C@H](O)[C@H]5O)[C@@H](O[C@@H]5O[C@H](CO)[C@@H](O)[C@H](O)[C@H]5O)[C@H]4O)[C@H](O)C[C@]4(C)C(=CC[C@@H]5[C@@]6(C)CC[C@H](O[C@@H]7O[C@H](CO[C@@H]8O[C@H](C)[C@H](O)[C@H](O)[C@H]8O[C@@H]8OC[C@@H](O)[C@H](O)[C@H]8O)[C@@H](O)[C@H](O)[C@H]7O[C@@H]7O[C@H](CO)[C@@H](O)[C@H](O)[C@H]7O)C(C)(C)[C@@H]6CC[C@]54C)[C@@H]3CC2(C)C)O[C@@H]1C)O[C@@H]1O[C@H](C)[C@@H](O)[C@H](O)[C@H]1O` [JULIBROSIDE I] displayed an IC50 greater than 10 µg/mL. In the case of `C[C@H]1O[C@@H](OC[C@H]2O[C@@H](O[C@H]3CC[C@]4(C)[C@H]5CC=C6[C@@H]7CC(C)(C)[C@@H]8C[C@]7(C(=O)O8)[C@H](O)C[C@@]6(C)[C@]5(C)CC[C@H]4C3(C)C)[C@H](O[C@@H]3O[C@H](CO)[C@@H](O)[C@H](O)[C@H]3O)[C@@H](O)[C@@H]2O)[C@H](O[C@@H]2OC[C@@H](O)[C@H](O)[C@H]2O)[C@@H](O)[C@H]1O` [PORSAPOGENIN 5] it was greater than 10 µg/mL; in that of `C[C@H]1O[C@@H](OC[C@H]2O[C@@H](O[C@H]3CC[C@]4(C)[C@H]5CC=C6[C@@H]7CC(C)(C)[C@@H]8C[C@]7(C(=O)O8)[C@H](O)C[C@@]6(C)[C@]5(C)CC[C@H]4C3(C)C)[C@H](O)[C@@H](O)[C@@H]2O)[C@H](O[C@@H]2OC[C@@H](O)[C@H](O)[C@H]2O)[C@@H](O)[C@H]1O` [PORSAPOGENIN 6], greater than 10 µg/mL; in that of `CC(=O)N[C@H]1[C@H](O[C@H]2CC[C@]3(C)[C@H]4CC=C5[C@@H]6CC(C)(C)[C@@H]7C[C@]6(C(=O)O7)[C@H](O)C[C@@]5(C)[C@]4(C)CC[C@H]3C2(C)C)O[C@H](CO[C@@H]2O[C@H](C)[C@H](O)[C@H](O)[C@H]2O[C@@H]2OC[C@@H](O)[C@H](O)[C@H]2O)[C@@H](O)[C@@H]1O` [PORSAPOGENIN 7], greater than 10 µg/mL.

`C=C[C@](C)(CC/C=C(\C)C(=O)O[C@H]1C[C@]2(C(=O)O[C@@H]3O[C@H](CO)[C@@H](O)[C@H](O)[C@H]3O[C@@H]3O[C@@H](C)[C@H](O[C@@H]4O[C@@H](CO)[C@H](O)[C@H]4O)[C@@H](O[C@@H]4O[C@H](CO)[C@@H](O)[C@H](O)[C@H]4O)[C@H]3O)[C@H](O)C[C@]3(C)C(=CC[C@@H]4[C@@]5(C)CC[C@H](O[C@@H]6O[C@H](CO[C@@H]7O[C@H](C)[C@H](O)[C@H](O)[C@H]7O[C@@H]7OC[C@@H](O)[C@H](O)[C@H]7O)[C@@H](O)[C@H](O)[C@H]6O[C@@H]6O[C@H](CO)[C@@H](O)[C@H](O)[C@H]6O)C(C)(C)[C@@H]5CC[C@]43C)[C@@H]2CC1(C)C)O[C@@H]1O[C@H](C)[C@@H](O)[C@H](O)[C@H]1O` [PORSAPOGENIN 8] registered an IC50 of 4500 nM. The compound `C=C[C@](C)(CC/C=C(\C)C(=O)O[C@H]1C[C@]2(C(=O)O[C@@H]3O[C@H](CO)[C@@H](O)[C@H](O)[C@H]3O[C@@H]3O[C@@H](C)[C@H](O[C@@H]4O[C@@H](CO)[C@H](O)[C@H]4O)[C@@H](O[C@@H]4O[C@H](CO)[C@@H](O)[C@H](O)[C@H]4O)[C@H]3O)[C@H](O)C[C@]3(C)C(=CC[C@@H]4[C@@]5(C)CC[C@H](O[C@@H]6O[C@H](CO[C@@H]7O[C@H](C)[C@H](O)[C@H](O)[C@H]7O[C@@H]7OC[C@@H](O)[C@H](O)[C@H]7O)[C@@H](O)[C@H](O)[C@H]6O)C(C)(C)[C@@H]5CC[C@]43C)[C@@H]2CC1(C)C)O[C@@H]1O[C@H](C)[C@@H](O)[C@H](O)[C@H]1O` [PORSAPOGENIN 9] yielded a half-inhibitory concentration (IC50) of 1600 nM. In the case of `C[C@H]1O[C@@H](OC[C@H]2O[C@@H](O[C@H]3CC[C@]4(C)[C@H]5CC=C6[C@@H]7CC(C)(C)[C@@H](O)C[C@]7(C(=O)O)[C@H](O)C[C@@]6(C)[C@]5(C)CC[C@H]4C3(C)C)[C@H](O)[C@@H](O)[C@@H]2O)[C@H](O[C@@H]2OC[C@@H](O)[C@H](O)[C@H]2O)[C@@H](O)[C@H]1O` [PROSAPOGENIN 1] it was greater than 10 µg/mL; in that of `CC(=O)N[C@H]1[C@H](O[C@H]2CC[C@]3(C)[C@H]4CC=C5[C@@H]6CC(C)(C)[C@@H](O)C[C@]6(C(=O)O)[C@H](O)C[C@@]5(C)[C@]4(C)CC[C@H]3C2(C)C)O[C@H](CO[C@@H]2OC[C@H](O)[C@H](O)[C@H]2O[C@@H]2OC[C@@H](O)[C@H](O)[C@H]2O)[C@@H](O)[C@@H]1O` [PROSAPOGENIN 2], greater than 10 µg/mL; in that of `CC1(C)C[C@H]2C3=CC[C@@H]4[C@@]5(C)CC[C@H](O[C@@H]6O[C@H](CO[C@@H]7OC[C@H](O)[C@H](O)[C@H]7O[C@@H]7OC[C@@H](O)[C@H](O)[C@H]7O)[C@@H](O)[C@H](O)[C@H]6O)C(C)(C)[C@@H]5CC[C@@]4(C)[C@]3(C)C[C@@H](O)[C@@]23C[C@@H]1OC3=O` [PROSAPOGENIN 3], greater than 10 µg/mL.

`CC(=O)N[C@H]1[C@H](O[C@H]2CC[C@]3(C)[C@H]4CC=C5[C@@H]6CC(C)(C)[C@@H]7C[C@]6(C(=O)O7)[C@H](O)C[C@@]5(C)[C@]4(C)CC[C@H]3C2(C)C)O[C@H](CO[C@@H]2OC[C@H](O)[C@H](O)[C@H]2O[C@@H]2OC[C@@H](O)[C@H](O)[C@H]2O)[C@@H](O)[C@@H]1O` [PROSAPOGENIN 4] yielded an IC50 greater than 10 µg/mL. In the case of `C=C[C@](C)(CC/C=C(\CO)C(=O)O[C@H]1C[C@]2(C(=O)O[C@@H]3O[C@H](CO)[C@@H](O)[C@H](O)[C@H]3O[C@@H]3O[C@@H](C)[C@H](O[C@@H]4O[C@@H](CO)[C@H](O)[C@H]4O)[C@@H](O[C@@H]4O[C@H](CO)[C@@H](O)[C@H](O)[C@H]4O)[C@H]3O)[C@H](O)C[C@]3(C)C(=CC[C@@H]4[C@@]5(C)CC[C@H](O[C@@H]6O[C@H](CO[C@@H]7O[C@H](C)[C@H](O)[C@H](O)[C@H]7O[C@@H]7OC[C@@H](O)[C@H](O)[C@H]7O)[C@@H](O)[C@H](O)[C@H]6O)C(C)(C)[C@@H]5CC[C@]43C)[C@@H]2CC1(C)C)O[C@@H]1O[C@H](C)[C@@H](O)[C@H](O)[C@H]1O` [PROSAPOGENIN 10] it was 2000 nM; in that of `C=C[C@](C)(CC/C=C(\C)C(=O)O[C@H]1C[C@]2(C(=O)O[C@@H]3O[C@H](CO)[C@@H](O)[C@H](O)[C@H]3O[C@@H]3O[C@@H](C)[C@H](O[C@@H]4O[C@@H](CO)[C@H](O)[C@H]4O)[C@@H](O[C@@H]4O[C@H](CO)[C@@H](O)[C@H](O)[C@H]4O)[C@H]3O)CC[C@]3(C)C(=CC[C@@H]4[C@@]5(C)CC[C@H](O[C@@H]6O[C@H](CO[C@@H]7O[C@H](C)[C@H](O)[C@H](O)[C@H]7O[C@@H]7OC[C@@H](O)[C@H](O)[C@H]7O)[C@@H](O)[C@H](O)[C@H]6O)C(C)(C)[C@@H]5CC[C@]43C)[C@@H]2CC1(C)C)O[C@@H]1O[C@H](C)[C@@H](O)[C@H](O)[C@H]1O` [PROSAPOGENIN 11], 1600 nM.

As to `C=C[C@](C)(CC/C=C(\C)C(=O)O[C@H]1C[C@]2(C(=O)O[C@@H]3O[C@H](CO)[C@@H](O)[C@H](O)[C@H]3O[C@@H]3O[C@@H](C)[C@H](O[C@@H]4O[C@@H](CO)[C@H](O)[C@H]4O)[C@@H](O[C@@H]4O[C@H](CO)[C@@H](O)[C@H](O)[C@H]4O)[C@H]3O)CC[C@]3(C)C(=CC[C@@H]4[C@@]5(C)CC[C@H](O[C@@H]6O[C@H](CO[C@@H]7O[C@H](C)[C@H](O)[C@H](O)[C@H]7O[C@@H]7OC[C@@H](O)[C@H](O)[C@H]7O)[C@@H](O)[C@H](O)[C@H]6OC6O[C@H](CO)[C@@H](O)[C@H](O)[C@H]6O)C(C)(C)[C@@H]5CC[C@]43C)[C@@H]2CC1(C)C)O[C@@H]1O[C@H](C)[C@@H](O)[C@H](O)[C@H]1O` (stereo not given in full) [PROSAPOGENIN 12], the IC50 was greater than 10 µg/mL.

For the origin of these results see ChEMBL document CHEMBL1145696, “Cytotoxic glycosides from Albizia julibrissin” (J Nat Prod, 1997).
